Patent publication US20200061173A1, “IMMUNOGENIC COMPOSITION COMPRISING SURVIVIN PEPTIDES” (Vaxeal Research SAS, priority 2016, published 2020)

Key:
[1] = tested on: Survivin peptides-specific T cell responses; test: T cell immunogenicity in mouse strains, ex vivo IFN-γ ELISpot on total splenocytes; settings: splenocytes re-stimulated with the individual SVX-1 peptides
Description: T cell immunogenicity of the mixture and individual Survivin derived polypeptides (S1, S2 and S3) was evaluated in different mouse strains (C57BL/6 (H2^b); BALB/c (H2^d) and CBA (H2^k)) and in the pre-clinical mouse model HLA-DRB1*0101, HLA-A*0201 (with α3 from D^b), H-2^/ transgenic mice (Tg HLA-A2/DR1). The objective of this study was to select the optimal genetic background to further investigate the immunogenicity and therapeutic efficacy of the SVX-1 vaccine composes of an equimolar mixture of these 3 Survivin LSPs.
Six (6) to ten (10) weeks old female C57BL/6, BALB/c, and CBA mice were obtained from Charles River (Saint-Germain-Nuelles, France).
The transgenic HLA-A2/DR1 mice, previously described (Pajot et al. 2004), were bred and maintained under specific pathogen-free conditions in an animal facility. […] One week after the last immunization (D21), spleen cells of immunized mice were harvested, and the induction of Survivin peptides-specific T cell responses was detected ex vivo using IFN-γ ELISpot assay on the total splenocytes (2×10^5 cells) re-stimulated overnight with the mix of peptides or the individual peptides. […]

PBMC T cells = test: Spontaneous T-cell responses against SVX-1 peptides in blood, IFN-γ ELISpot; assay type: cell-based, human; settings: among the 6 positive patients
Description: Peripheral blood from 7 lung cancer patients was used to monitor the presence of SVX-1 peptides specific T cells. The cancer patients were recruited at the Hôpital Europeen Georges Pompidou (Paris, France). This study was conducted in accordance with French laws and after approval by the local ethics committee. Blood cells were also collected from 3 anonymous healthy donors at the Etablissement Français du Sang (EFS, Rungis, France) as buffy-coat preparations after informed consent and following EFS guidelines. The blood from the healthy donors served as negative controls.
PBMC were isolated by density centrifugation on Ficoll-Hyperpaque gradients (Sigma-Aldrich). PBMC were cultured for 6 days at 2×10^6 cells/ml in 2 ml per well with complete RPMI medium supplemented with 10% FCS. In each well, a pool of SVX-1 peptides was added at a concentration of 10 μg/ml. On day 2 after the beginning of the culture, IL-2 (Chiron) was added at 20 IU/ml in standard conditions. After 6 days of culture, ELISpot assays were performed using PHA-activated cells pulsed with the pool of SVX-1 peptides or the individual peptides (S1, S2 or S3) as antigen presenting cells (APCs). […]
Spots were counted using an automated stereomicro-scope (Zeiss). The number of specific T cells expressed as spot-forming cells/10^5 cells was calculated after subtracting negative control values (background). […]

Sequence: HRISTFKNWPFLEGCACT (alpha-isoform survivin S1 positions 17-34) [18 amino acid peptide consisting of wild type Survivin amino acids 17-34]
- T cell responses against individual peptides in CBA mice [1]: mainly directed against the S1 peptides
- Spontaneous T cell responses against individual peptides in lung cancer patients (PBMC T cells): detected
